# Patent US11407812B2, “Targeted expression of chloride channels and methods of use thereof” (GOLEINI INC., priority 2015, dated 2022)
# B1: wild-type GluCl α-subunit: fluorescently tagged Caenorhabditis elegans GluCl α-subunit, wild type, expressed from plasmid (protein, UniProt G5EBR3 21-461, looked up)
# Glutamate-gated chloride …: QQARTKSQDIFEDDNDNGTTTLESLARLTSPIHIPIEQPQTSDSKILAHLFTSGYDFRVRPPTDNGGPVVVSVNMLLRTISKIDVVNMEYSAQLTLRESWIDKRLSYGVKGDGQPDFVILTVGHQIWMPDTFFPNEKQAYKHTIDKPNVLIRIHNDGTVLYSVRISLVLSCPMYLQYYPMDVQQCSIDLASYAYTTKDIEYLWKEHSPLQLKVGLSSSLPSFQLTNTSTTYCTSVTNTGIYSCLRTTIQLKREFSFYLLQLYIPSCMLVIVSWVSFWFDRTAIPARVTLGVTTLLTMTAQSAGINSQLPPVSYIKAIDVWIGACMTFIFCALLEFALVNHIANKQGVERKARTEREKAEIPLLQNLHNDVPTKVFNQEEKVRTVPLNRRQMNSFLNLLETKTEWNDISKRVDLISRALFPVLFFVFNILYWSRFGQQNVLF
# B2: hGlyRa1 (protein, listed as Homo sapiens)
# chain: MYSFNTLRLYLWETIVFFSLAASKEAEAARSAPKPMSPSDFLDKLMGRTSGYDARIRPNFKGPPVNVSCNIFINSFGSIAETTMDYRVNIFLRQQWNDPRLAYNEYPDDSLDLDPSMLDSIWKPDLFFANEKGAHFHEITTDNKLLRISRNGNVLYSIRITLTLACPMDLKNFPMDVQTCIMQLESFGYTMNDLIFEWQEQGAVQVADGLTLPQFILKEEKDLRYCTKHYNTGKFTCIEARFHLERQMGYYLIQMYIPSLLIVILSWISFWINMDAAPARVGLGITTVLTMTTQSSGSRASLPKVSYVKAIDIWMAVCLLFVFSALLEYAAVNFVSRQHKELLRFRRKRRHHKSPMLNLFQEDEAGEGRFNFSAYGMGPACLQAKDGISVKGANNSNTTNPPPAPSKSPEEMRKLFIQRAKKIDKISRIGFPMAFLIFNMFYWIIYKIVRREDVHNQ
# Legend:
# [1] = biological target: T1, GlyR α-subunit (hGlyRa1) (Homo sapiens, UniProt P23415); assay: FLIPR membrane potential assay in HEK-293 cells expressing hGlyRa1; type: cell-based
# T1 construct: P2A-mEYFP (C); host or cells: HEK-293
# T1 sequence (P23415 29-457): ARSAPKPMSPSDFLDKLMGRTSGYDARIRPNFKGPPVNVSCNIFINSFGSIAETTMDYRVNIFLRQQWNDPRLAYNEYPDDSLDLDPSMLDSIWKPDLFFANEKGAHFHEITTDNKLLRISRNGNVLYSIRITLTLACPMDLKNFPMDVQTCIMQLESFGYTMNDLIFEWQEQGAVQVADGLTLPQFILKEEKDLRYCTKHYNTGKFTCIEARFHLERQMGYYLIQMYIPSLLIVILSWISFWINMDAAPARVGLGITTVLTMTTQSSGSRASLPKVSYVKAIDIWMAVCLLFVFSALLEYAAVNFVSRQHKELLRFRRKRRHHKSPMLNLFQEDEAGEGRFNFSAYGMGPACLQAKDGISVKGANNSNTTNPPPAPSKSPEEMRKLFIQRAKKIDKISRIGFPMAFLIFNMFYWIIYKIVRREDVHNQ
# Method: For FlexStation assays, HEK-293 cells were plated at 20,000 cells/well, with a plating volume of 100 μl/well, in a black-sided/clear-bottomed 96-well imaging plate (BD Falcon #353219). For transfection, […] in 750 μl Opti-MEM (Gibco 31985-070) was mixed with 30 μl ExpressFect in 750 μl Opti-MEM, pre-incubated for 20 minutes, and then added at 15 μl/well to cells containing 100 μl fresh culture media. Cells were transfected 24 hours after plating and assayed 48 hours after transfection.
# A fluorescence-based assay employing the FLIPR Membrane Potential Assay Kit, BLUE formulation, (Molecular Devices, #R8042) was used to detect voltage changes across the cell membrane. Dye loading buffer was prepared according to package literature. Specifically, the contents of one vial of BLUE reagent was dissolved with 5 ml of 1×Assay Buffer, followed by a wash of the vial with another 5 ml of 1× Assay Buffer, to yield a total volume of 10 ml of dye loading buffer. Unused portions of dye loading buffer were stored at −20° C. and used within 5 days. […] Cells were then loaded with 50 μl of Blue dye loading buffer and incubated for 40 min at 37° C./5% CO2. The signal was detected using the FlexStation 3 multimode benchtop microplate reader operated by SoftMax Pro Data Acquisition & Analysis Software (Molecular Devices). Excitation and emission wavelengths were set at 530 nm and 565 nm, respectively, with an emission cut-off of 550 nm. Plate reads were performed at 30° C. with a ‘Low PMT’ setting. […] Other FlexStation parameters included a pipette height of 130 an initial well volume of 100 μl, a transfer volume of 50 μl (therefore, drug concentrations were prepared 3×), and a transfer rate setting of 2, corresponding to ˜31 μl/sec.
# [2] = test system: SNI model of neuropathic pain in the rat; assay: Spared nerve injury (SNI) model of neuropathic pain, von Frey withdrawal threshold (Example 5); type: in vivo; conditions: for withdrawal threshold / reduction of the allodynic response: Control vector animals
# Source text: Under isoflurane anesthesia the skin on the lateral surface of the thigh was incised and a section made directly through the biceps femoris muscle exposing the sciatic nerve and its three terminal branches: the sural, common peroneal and tibial nerves. The SNI procedure comprised an axotomy and ligation of the tibial and common peroneal nerves leaving the sural nerve intact. The common peroneal and the tibial nerves were tight-ligated with 5.0 silk and sectioned distal to the ligation, removing 2±4 mm of the distal nerve stump. Great care was taken to avoid any contact with or stretching of the intact sural nerve. Muscle and skin were closed in two layers (Decosterd I. and Woolf C. (2000) Pain 87(2):149-158). In the current study this was considered as Day 0.
# Testing was performed during the day portion of the circadian cycle only (06:00-18:00 h). Rats were placed in an inverted plastic cage on an elevated wire mesh platform which allowed full access to the paws. Behavioral accommodation was allowed for approximately 15 min, until cage exploration and major grooming activities ceased. The area tested was the lateral region of the plantar left hind paw, in the sural nerve distribution, avoiding the less sensitive tori (footpads). The paw was touched with 1 of a series of 8 von Frey filaments with logarithmically incremental stiffness (0.41, 0.70, 1.20, 2.00, 3.63, 5.50, 8.50, and 15.10 g) (Stoelting). The von Frey filament was presented perpendicular to the plantar surface with sufficient force to cause slight buckling against the paw, and held for approximately 6-8 s. Stimuli were presented at intervals of several seconds, allowing for apparent resolution of any behavioral responses to previous stimuli. A positive response was noted if the paw was sharply withdrawn. Flinching immediately upon removal of the hair was also considered a positive response. Ambulation was considered an ambiguous response, and in such cases the stimulus was repeated. Based on observations on normal, un-operated rats, the cut-off of a 15.10 g filament (˜10% of the body weight of the smaller rats) was selected as the upper limit for testing, since stiffer filaments tended to raise the entire limb rather than to buckle, substantially changing the nature of the stimulus (Chaplan S. et al. (1994) J Neurosci Methods 53(1): 55-63).
# One day prior to the surgery (Day −1) animals were tested for their baseline response to mechanical stimulation (mechanical sensitivity). At 10 days post-surgery all animals were re-tested for their mechanical sensitivity.
# At days 13, 22 and 35 post-treatment (days 23, 32 and 45 post-surgery) animals were re-evaluated for their mechanical sensitivity. For all of these measurements the operator was blinded as to the identity of the animals.
# At day 36 post-treatment (day 46 post-surgery) the animals were dosed with gabapentin (100 mg/kg: IP). At 1 hour and 2 hours post-gabapentin administration the animals were evaluated for their sensitivity to mechanical stimulation.
# The 50% withdrawal threshold was determined using the up-down method of Dixon (Chaplan S. et al. (1994) J Neurosci Methods 53(1):55-63; Dixon W J. (1980) Ann. Rev. Pharmacol. Toxicol. 20:441-462). In this paradigm, testing was initiated with the 2.0 g filament, in the middle of the series. Stimuli were always presented in a consecutive fashion, whether ascending or descending. In the absence of a paw withdrawal response to the initially selected filament, a stronger stimulus was presented; in the event of paw withdrawal, the next weaker stimulus was chosen. According to Dixon, optimal threshold calculation by this method requires 6 responses in the immediate vicinity of the 50% threshold. Since the threshold is not known, strings of similar responses may be generated as the threshold is approached from either direction.
# [3] = biological target: T2, L9′A mutated GluCl α-subunit (GluCl*) (Caenorhabditis elegans, UniProt G5EBR3, L315A); type: cell-based; conditions: increasing doses of ivermectin, cells expressing GluCl*
# T2 construct: expressed in transfected cells; host or cells: HEK-293
# [4] = test system: wild-type α-subunit of the GluCl glutamate receptor; assay: FLIPR membrane potential assay in HEK-293 cells expressing wild-type GluCl α-subunit; type: cell-based, Caenorhabditis elegans
# Method: Cells were transfected 24 hours after plating and assayed 48 hours after transfection.
# A fluorescence-based assay employing the FLIPR Membrane Potential Assay Kit, BLUE formulation, (Molecular Devices, #R8042) was used to detect voltage changes across the cell membrane. Dye loading buffer was prepared according to package literature. Specifically, the contents of one vial of BLUE reagent was dissolved with 5 ml of 1× Assay Buffer, followed by a wash of the vial with another 5 ml of 1× Assay Buffer, to yield a total volume of 10 ml of dye loading buffer. Unused portions of dye loading buffer were stored at −20° C. and used within 5 days. For the functional assay, culture medium was removed from the cells and replaced with 50 DMEM. Cells were then loaded with 50 μl of Blue dye loading buffer and incubated for 40 min at 37° C./5% CO2. The signal was detected using the FlexStation 3 multimode benchtop microplate reader operated by SoftMax Pro Data Acquisition & Analysis Software (Molecular Devices). Excitation and emission wavelengths were set at 530 nm and 565 nm, respectively, with an emission cut-off of 550 nm. Plate reads were performed at 30° C. with a ‘Low PMT’ setting. Run times, of which the first 20 s measured basal fluorescence, were 300 s for ivermectin-induced signals. […]
# [5] = in vivo; cited from earlier work
# [6] = test system: GlyR; conditions: read-out: EC50 for gating of GlyR; cited from earlier work
# [7] = test system: HEK-293 cells; type: cell-based, human; conditions: 48 hours post-transfection
# Method: […]. […] […]. […] Five separate wells were evaluated for each condition (un-transfected, mock-transfected, GluCl and GluCl*).
# [8] = test system: Human airway smooth muscle (HASM) cells; assay: Histamine-induced increase in intracellular Ca++ (Fluo 8); type: cell-based
# Method: Human airway smooth muscle (HASM) cells were derived from tracheas obtained from the National Disease Research Interchange (Philadelphia, Pa., USA) and from the International Institute for the Advancement of Medicine (Edison, N.J., USA). The cells were cultured in Ham's F-12 medium supplemented with 10% FBS, 100 U mL^−1 penicillin, 0.1 mg mL^−1 streptomycin and 2.5 mg mL^−1 amphotericin B, and this medium was replaced every 72 h. HASM cells in subculture during passages 1-5 were used, because these cells retain the expression of native contractile protein. The HASM cells were derived from healthy normal donors.
# Cells were serum starved for 24 hr and loaded with Fluo 8 calcium sensing dye for 1 hr prior to stimulation with histamine. […] All data from both studies is expressed as relative fluorescent units.
# T2 sequence (G5EBR3 21-461 L315A): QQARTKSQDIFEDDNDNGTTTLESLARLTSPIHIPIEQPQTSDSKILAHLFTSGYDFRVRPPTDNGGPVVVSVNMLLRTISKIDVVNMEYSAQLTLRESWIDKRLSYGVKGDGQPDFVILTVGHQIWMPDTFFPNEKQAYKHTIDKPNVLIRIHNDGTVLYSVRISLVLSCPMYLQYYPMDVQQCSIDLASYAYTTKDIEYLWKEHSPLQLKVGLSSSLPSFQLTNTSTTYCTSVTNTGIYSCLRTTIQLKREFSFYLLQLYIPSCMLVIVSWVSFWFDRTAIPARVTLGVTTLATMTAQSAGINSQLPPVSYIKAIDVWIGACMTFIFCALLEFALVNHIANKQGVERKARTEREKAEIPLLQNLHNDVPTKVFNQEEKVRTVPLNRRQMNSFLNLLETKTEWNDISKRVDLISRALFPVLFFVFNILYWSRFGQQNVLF
molecule,measurement,setting,value
NCCS(=O)(=O)O [Taurine],effect on membrane potential,"[1]; taurine 1 μM to 1 mM, monomeric hGlyRa1 channel",no direct effect
NCC1(CC(=O)O)CCCCC1 [Gabapentin],withdrawal threshold,"[2]; 1 hour post dose, 100 mg/kg IP",3.44 ± 0.36 g
same,reduction of the allodynic response,"[2]; 1 hour post-dose, 100 mg/kg IP",25%
same,withdrawal threshold,"[2]; 2 hours post dose, 100 mg/kg IP",4.15 ± 0.19 g
same,reduction of the allodynic response,"[2]; 2 hours post-dose, 100 mg/kg IP",44%
same,withdrawal threshold,"[2]; pre-dose, day 46 post-surgery",2.46 ± 0.49 g
same,effect on response to mechanical stimulation in animals previously treated with GTX-01*,"[2]; rat, in vivo",no effect
Ivermectin,effect of ivermectin on change in membrane potential,[3],did not augment the change in membrane potential
same,EC50,"[4]; HEK-293 cells expressing wild-type GluCl α-subunit alone, 4.5 minutes post addition, read-out: EC50 of change in membrane potential",147 nM
NCC(=O)O [Glycine],half-life in the body,[5],26 to 245 min
same,EC50,[6],~100 µM
same,EC100 of change in membrane potential,[1]; HEK-293 cells expressing hGlyRa1,approximately 300 μM
B1,unstimulated change in membrane potential,"[4]; no agonist, monomeric expression in HEK-293",no unstimulated change in membrane potential
same,cell viability,[7],91.8%
B2,unstimulated change in membrane potential,[1],no unstimulated change in membrane potential
same,effect on histamine-induced increase in intracellular Ca,[8],antagonized
